Experimental data reported in PubChem BioAssay AID2060896 (Molecular Pharmacology Branch, DTP, NCI, 2025).

System: 941728-121-R-J1-PDC complex spheroid viability
Experiment: Anticancer human tumor 941728-121-R-J1-PDC patient-derived lung adenocarcinoma cell line growth inhibition [RAS]
Details: for IC50: curve of first compound; for viability, T/C: stronger effect = lower value
How it was run: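 Tumour cells grown as complex spheroids with HUVEC endothelial cells and mesenchymal stem cells, treated with RAS pathway inhibitor combinations. Each agent spans half-log steps from near clinical Cmax, or 10 microM where Cmax is unknown.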

[1] = second compound 0.000949 µM, first compound 0.000949 µM
[2] = second compound 0.000949 µM, first compound 0.003 µM
[3] = second compound 0.000949 µM, first compound 0.00949 µM
[4] = second compound 0.000949 µM, first compound 0.03 µM
[5] = second compound 0.000949 µM, first compound 0.0949 µM
[6] = second compound 0.000949 µM, first compound 0.3 µM
[7] = second compound 0.003 µM, first compound 0.000949 µM
[8] = second compound 0.003 µM, first compound 0.003 µM
[9] = second compound 0.003 µM, first compound 0.00949 µM
[10] = second compound 0.003 µM, first compound 0.03 µM
[11] = second compound 0.003 µM, first compound 0.0949 µM
[12] = second compound 0.003 µM, first compound 0.3 µM
[13] = second compound 0.00949 µM, first compound 0.000949 µM
[14] = second compound 0.00949 µM, first compound 0.003 µM
[15] = second compound 0.00949 µM, first compound 0.00949 µM
[16] = second compound 0.00949 µM, first compound 0.03 µM
[17] = second compound 0.00949 µM, first compound 0.0949 µM
[18] = second compound 0.00949 µM, first compound 0.3 µM
[19] = second compound 0.03 µM, first compound 0.000949 µM
[20] = second compound 0.03 µM, first compound 0.003 µM
[21] = second compound 0.03 µM, first compound 0.00949 µM
[22] = second compound 0.03 µM, first compound 0.03 µM
[23] = second compound 0.03 µM, first compound 0.0949 µM
[24] = second compound 0.03 µM, first compound 0.3 µM
[25] = second compound 0.0949 µM, first compound 0.000949 µM
[26] = second compound 0.0949 µM, first compound 0.003 µM
[27] = second compound 0.0949 µM, first compound 0.00949 µM
[28] = second compound 0.0949 µM, first compound 0.03 µM
[29] = second compound 0.0949 µM, first compound 0.0949 µM
[30] = second compound 0.0949 µM, first compound 0.3 µM
[31] = second compound 0.3 µM, first compound 0.000949 µM
[32] = second compound 0.3 µM, first compound 0.003 µM
[33] = second compound 0.3 µM, first compound 0.00949 µM
[34] = second compound 0.3 µM, first compound 0.03 µM
[35] = second compound 0.3 µM, first compound 0.0949 µM
[36] = second compound 0.3 µM, first compound 0.3 µM
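Also: spheroids exposed to compounds for 7 days before readout.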
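For viability, T/C in this document: 100% = DMSO vehicle control viability.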

C=CC(=O)N1CCN(c2nc(OCC3CCCN3C)nc3c(F)c(-c4nc(N)cc(C)c4C(F)(F)F)c(Cl)cc23)C(C)C1 (stereo unspecified) + CCn1c(-c2cccnc2C(C)OC)c2c3cc(ccc31)N1CCOC(CC(NC(=O)C(C(C)C)N(C)C(=O)C3(F)CCN(C(=O)C#CC(C)(C)N(C)C)CC3)C(=O)N3CCCC(N3)C(=O)OCC(C)(C)C2)C1
IC50 (second compound 0.000949 µM): < 3.16 nM
IC50 (second compound 0.003 µM): < 3.16 nM
IC50 (second compound 0.00949 µM): < 3.16 nM
IC50 (second compound 0.03 µM): < 3.16 nM
IC50 (second compound 0.0949 µM): < 3.16 nM
IC50 (second compound 0.3 µM): < 3.16 nM
viability, T/C (second compound 0.000949 µM, first compound 0.00316 µM): 22.3%
viability, T/C (second compound 0.000949 µM, first compound 0.01 µM): 23.4%
viability, T/C (second compound 0.000949 µM, first compound 0.0316 µM): 20.6%
viability, T/C (second compound 0.000949 µM, first compound 0.1 µM): 22.8%
viability, T/C (second compound 0.000949 µM, first compound 0.316 µM): 22.8%
viability, T/C (second compound 0.000949 µM, first compound 1 µM): 19.9%
viability, T/C (second compound 0.003 µM, first compound 0.00316 µM): 26.6%
viability, T/C (second compound 0.003 µM, first compound 0.01 µM): 22.7%
viability, T/C (second compound 0.003 µM, first compound 0.0316 µM): 21.4%
viability, T/C (second compound 0.003 µM, first compound 0.1 µM): 24.5%
viability, T/C (second compound 0.003 µM, first compound 0.316 µM): 23.2%
viability, T/C (second compound 0.003 µM, first compound 1 µM): 19%
viability, T/C (second compound 0.00949 µM, first compound 0.00316 µM): 24.7%
viability, T/C (second compound 0.00949 µM, first compound 0.01 µM): 21.1%
viability, T/C (second compound 0.00949 µM, first compound 0.0316 µM): 22.7%
viability, T/C (second compound 0.00949 µM, first compound 0.1 µM): 23.4%
viability, T/C (second compound 0.00949 µM, first compound 0.316 µM): 20.6%
viability, T/C (second compound 0.00949 µM, first compound 1 µM): 20.5%
viability, T/C (second compound 0.03 µM, first compound 0.00316 µM): 22.4%
viability, T/C (second compound 0.03 µM, first compound 0.01 µM): 22.5%
viability, T/C (second compound 0.03 µM, first compound 0.0316 µM): 25.3%
viability, T/C (second compound 0.03 µM, first compound 0.1 µM): 24.8%
viability, T/C (second compound 0.03 µM, first compound 0.316 µM): 18.7%
viability, T/C (second compound 0.03 µM, first compound 1 µM): 23.6%
viability, T/C (second compound 0.0949 µM, first compound 0.00316 µM): 22.7%
viability, T/C (second compound 0.0949 µM, first compound 0.01 µM): 23.9%
viability, T/C (second compound 0.0949 µM, first compound 0.0316 µM): 23.4%
viability, T/C (second compound 0.0949 µM, first compound 0.1 µM): 23.4%
viability, T/C (second compound 0.0949 µM, first compound 0.316 µM): 22.6%
viability, T/C (second compound 0.0949 µM, first compound 1 µM): 25.4%
viability, T/C (second compound 0.3 µM, first compound 0.00316 µM): 22.7%
viability, T/C (second compound 0.3 µM, first compound 0.01 µM): 25%
viability, T/C (second compound 0.3 µM, first compound 0.0316 µM): 22.4%
viability, T/C (second compound 0.3 µM, first compound 0.1 µM): 21.4%
viability, T/C (second compound 0.3 µM, first compound 0.316 µM): 21%
viability, T/C (second compound 0.3 µM, first compound 1 µM): 28%

CC1(C)CCC(Nc2ncc(C(F)(F)F)c(-c3c[nH]c4c(P(C)(C)=O)c(C#N)ccc34)n2)CN1 (stereo unspecified) + CCn1c(-c2cccnc2C(C)OC)c2c3cc(ccc31)N1CCOC(CC(NC(=O)C(C(C)C)N(C)C(=O)C3(F)CCN(C(=O)C#CC(C)(C)N(C)C)CC3)C(=O)N3CCCC(N3)C(=O)OCC(C)(C)C2)C1
IC50 (second compound 0.000949 µM): < 0.949 nM
IC50 (second compound 0.003 µM): < 0.949 nM
IC50 (second compound 0.00949 µM): < 0.949 nM
IC50 (second compound 0.03 µM): < 0.949 nM
IC50 (second compound 0.0949 µM): < 0.949 nM
IC50 (second compound 0.3 µM): < 0.949 nM
viability, T/C [1]: 21%
viability, T/C [2]: 20.7%
viability, T/C [3]: 16.3%
viability, T/C [4]: 23.5%
viability, T/C [5]: 24.3%
viability, T/C [6]: 15.7%
viability, T/C [7]: 25.2%
viability, T/C [8]: 19.5%
viability, T/C [9]: 18.2%
viability, T/C [10]: 22.9%
viability, T/C [11]: 22.2%
viability, T/C [12]: 16.6%
viability, T/C [13]: 21.4%
viability, T/C [14]: 20.2%
viability, T/C [15]: 21.2%
viability, T/C [16]: 19.6%
viability, T/C [17]: 21.2%
viability, T/C [18]: 21.9%
viability, T/C [19]: 20.4%
viability, T/C [20]: 17%
viability, T/C [21]: 22.8%
viability, T/C [22]: 21.7%
viability, T/C [23]: 19%
viability, T/C [24]: 21.6%
viability, T/C [25]: 19.5%
viability, T/C [26]: 20.3%
viability, T/C [27]: 21%
viability, T/C [28]: 23.4%
viability, T/C [29]: 19%
viability, T/C [30]: 23.7%
viability, T/C [31]: 20.7%
viability, T/C [32]: 19.9%
viability, T/C [33]: 25.6%
viability, T/C [34]: 20.9%
viability, T/C [35]: 21.4%
viability, T/C [36]: 25.6%

CCc1c2c(nc3ccc(O)cc13)-c1cc3c(c(=O)n1C2)COC(=O)[C@]3(O)CC + CCn1c(-c2cccnc2C(C)OC)c2c3cc(ccc31)N1CCOC(CC(NC(=O)C(C(C)C)N(C)C(=O)C3(F)CCN(C(=O)C#CC(C)(C)N(C)C)CC3)C(=O)N3CCCC(N3)C(=O)OCC(C)(C)C2)C1
IC50 (second compound 0.000949 µM): < 0.949 nM
IC50 (second compound 0.003 µM): < 0.949 nM
IC50 (second compound 0.00949 µM): < 0.949 nM
IC50 (second compound 0.03 µM): < 0.949 nM
IC50 (second compound 0.0949 µM): < 0.949 nM
IC50 (second compound 0.3 µM): < 0.949 nM
viability, T/C [1]: 23.7%
viability, T/C [2]: 18.9%
viability, T/C [3]: 14.2%
viability, T/C [4]: 17.5%
viability, T/C [5]: 11.7%
viability, T/C [6]: 6.82%
viability, T/C [7]: 25.2%
viability, T/C [8]: 21.1%
viability, T/C [9]: 14.8%
viability, T/C [10]: 14.4%
viability, T/C [11]: 12.2%
viability, T/C [12]: 7.12%
viability, T/C [13]: 22.4%
viability, T/C [14]: 16.3%
viability, T/C [15]: 17.1%
viability, T/C [16]: 13.5%
viability, T/C [17]: 11.2%
viability, T/C [18]: 7.23%
viability, T/C [19]: 22.5%
viability, T/C [20]: 18.8%
viability, T/C [21]: 18%
viability, T/C [22]: 16.2%
viability, T/C [23]: 9.36%
viability, T/C [24]: 8.84%
viability, T/C [25]: 19.7%
viability, T/C [26]: 19.7%
viability, T/C [27]: 17.2%
viability, T/C [28]: 15.3%
viability, T/C [29]: 10.7%
viability, T/C [30]: 9.1%
viability, T/C [31]: 21.8%
viability, T/C [32]: 18%
viability, T/C [33]: 16.4%
viability, T/C [34]: 14.2%
viability, T/C [35]: 10.8%
viability, T/C [36]: 7.87%
